Key:
[1] = Stability of the analytes in rat plasma QC samples (short-term, autosampler, freeze-thaw, long-term); settings: n = 6
[2] = Pharmacokinetics study in rats after oral administration of YDXNT (UPLC-QqQ-MS of plasma); settings: male, Sprague-Dawley, rat, plasma, po, 4.8 g kg^−1 d^−1
Experimental: (§1) Six milliliters of 75% methanol was added to two milliliters of prepared plasma and then vortexed for 60 s. The mixture was centrifuged at 4000 rpm for 10 min at 4 °C. The supernatant was transferred to another EP tube and dried using a pressure blowing concentrator. The residue was redissolved with 200 μL of 75% methanol, vortexed for 60 s, and then centrifuged at 13 000 rpm for 10 min. To an aliquot of 200 μL plasma, 120 μL of 0.2 mol L^−1 acetic acid–sodium acetate buffer solution (pH = 4.6), 100 μL of the IS baicalein and 80 μL of 980 U mL^−1 β-glucuronidase and sulfatase was added and then vortexed for 1 min. The mixture was hydrolyzed in a water bath at 37 °C for 30 min, and 600 μL acetone was added to stop the hydrolysis. The sample was cooled, followed by vortexing for 2 min and then centrifugation at 13 000 rpm for 10 min. The supernatant fluid was evaporated to dryness under a flow of nitrogen gas.
(§2) Chromatographic analysis was performed using an Agilent 1290 Series UPLC from Agilent Technologies (Palo Alto, CA, USA), equipped with a quaternary pump an online degasser, auto-sampler and column oven. Chromatographic separation was performed on the Agilent ZORBAX SB-Aq C18 column (100 mm × 2.1 mm, 1.8 μm, Agilent, USA). The analytical column temperature was maintained at 30 °C and eluted with a mobile phase comprising 0.1% formic acid in water (A) and acetonitrile (B) using the following gradient program: 25–90% B from 0 to 1 min, 90% B from 1 to 3.5 min, and 90–25% B from 3.5 to 5 min at a flow rate of 0.3 mL min^−1. The equilibration time was 5 min, and the injection volume of sample and reference constituents was 5 μL.
(§3) Mass spectrometry was performed on the Agilent 6490 triple-quadrupole mass spectrometer (Palo Alto, CA, USA) equipped with an atmospheric pressure chemical ionization (APCI) interface. The mass spectrometer was set in negative ionization mode, with the capillary voltage set at 3500 V. The other parameters in the source were set as follows: desolvation gas flow, 15 L min^−1; source temperature, 290 °C; N2 sheath gas temperature, 350 °C; nebulizer gas (N2) pressure, 50 psi; flow, 12 L min^−1. The mass spectrometer scanned in multiple reaction monitoring (MRM) mode.
(§4) Six male rats were used in the pharmacokinetics study. All the rats were orally administered 2.4 g kg^−1 YXCNT suspended in an aqueous solution of 0.5% carboxymethyl cellulose sodium (QCT: 4.118 mg; KMF: 5.067 mg; ISR: 0.965 mg; GA: 1.416 mg; GB: 0.680 mg; GC: 0.796 mg; BB: 0.326 mg; TSIIA: 0.624 mg; SAB: 3.84 mg). After dosing for 0 min, 5 min, 15 min, 20 min, 30 min, 45 min, 1 h, 1.5 h, 2 h, 3 h, 4 h, 6 h, 8 h, 12 h, and 24 h, blood samples (500 μL) were drawn from the retro-orbital plexus of each mouse and collected in heparinized tubes according to the specific schedule. All the collected blood samples were immediately centrifuged at 13 000 rpm for 10 min. The plasma layer was transferred to clean tubes and stored at −20 °C until analysis. The plasma concentrations of QCT, ISR, KMF, GA, GB, GC, BB, TSIIA, and SAB were expressed as the mean ± standard deviation (SD), and the mean concentration–time curve was plotted. Non-compartmental pharmacokinetic parameters were computed using DAS 2.1.1 software.

in vivo = settings: male, Sprague-Dawley, rat, po
Experimental: as §1, §2, §3, §4

[3] = 1 ng mL^−1, -20°C for four weeks
[4] = 1 ng mL^−1, room temperature for 6 h before sample preparation
[5] = 1 ng mL^−1, room temperature for 12 h in the autosampler after sample preparation
[6] = 1 ng mL^−1, three freeze-thaw cycles -20°C to ambient temperature
[7] = 10 ng mL^−1, -20°C for four weeks
[8] = 10 ng mL^−1, room temperature for 6 h before sample preparation
[9] = 10 ng mL^−1, room temperature for 12 h in the autosampler after sample preparation
[10] = 10 ng mL^−1, three freeze-thaw cycles -20°C to ambient temperature
[11] = 100 ng mL^−1, -20°C for four weeks
[12] = 100 ng mL^−1, room temperature for 6 h before sample preparation
[13] = 100 ng mL^−1, room temperature for 12 h in the autosampler after sample preparation
[14] = 100 ng mL^−1, three freeze-thaw cycles -20°C to ambient temperature

Row | SMILES | Long-term stability Accuracy [1, 3] [%] | Short-term stability Accuracy [1, 4] [%] | Autosampler stability Accuracy [1, 5] [%] | Freeze–thaw strability (three cycles) Accuracy [1, 6] [%] | Long-term stability Accuracy [1, 7] [%] | Short-term stability Accuracy [1, 8] [%] | Autosampler stability Accuracy [1, 9] [%] | Freeze–thaw strability (three cycles) Accuracy [1, 10] [%] | Long-term stability Accuracy [1, 11] [%] | Short-term stability Accuracy [1, 12] [%] | Autosampler stability Accuracy [1, 13] [%] | Freeze–thaw strability (three cycles) Accuracy [1, 14] [%] | AUC(0-inf) [2] [ng·h/mL] | AUC(0-t) [2] [ng·h/mL] | Cmax [2] [ng/mL] | MRT [2] [h] | Tmax [2] [h] | half-life [2] [h] | further results
1 | Cc1coc2c1C(=O)C(=O)c1c-2ccc2c1CCCC2(C)C [TSIIA, tanshinone IIA] | 101.23 ± 8.76 | 96.50 ± 6.47 | 102.65 ± 5.28 | 100.31 ± 4.27 | 103.21 ± 4.14 | 101.22 ± 2.09 | 95.96 ± 3.11 | 101.22 ± 2.09 | 94.24 ± 6.63 | 95.96 ± 3.11 | 99.15 ± 5.73 | 95.97 ± 2.36 | 183 ± 77.4 | 167 ± 69.5 | 38.3 ± 17.4 | 9.89 ± 1.5 | 0.25 ± 0.23 | 7.04 ± 2.18 | –
2 | O=c1c(O)c(-c2ccc(O)cc2)oc2cc(O)cc(O)c12 [KMF, kaempferol] | 98.70 ± 9.35 | 96.50 ± 6.47 | 99.17 ± 4.39 | 101.23 ± 8.76 | 100.48 ± 7.44 | 101.22 ± 2.09 | 102.65 ± 5.28 | 103.21 ± 4.14 | 95.21 ± 5.96 | 97.10 ± 3.69 | 95.96 ± 3.11 | 94.24 ± 6.63 | 539 ± 82.3 | 401 ± 84.4 | 49.9 ± 13.8 | 17.1 ± 4.42 | 0.5 ± 0.23 | 8.19 ± 2.42 | –
3 | O=c1c(O)c(-c2ccc(O)c(O)c2)oc2cc(O)cc(O)c12 [QCT, quercetin] | 97.57 ± 3.42 | 100.23 ± 1.69 | 103.73 ± 5.52 | 98.27 ± 6.33 | 96.41 ± 5.79 | 97.45 ± 4.23 | 99.34 ± 6.73 | 100.31 ± 4.27 | 93.17 ± 7.35 | 95.97 ± 2.36 | 94.22 ± 5.14 | 98.35 ± 7.84 | 412 ± 82.7 | 410 ± 73.2 | 45 ± 11.3 | 8.44 ± 1.24 | 0.33 ± 0.11 | 2.69 ± 0.65 | –
4 | C[C@@H]1C(=O)O[C@H]2C[C@@]34[C@H]5C[C@@H](C(C)(C)C)[C@]36[C@@H](OC(=O)[C@@H]6O)O[C@@]4(C(=O)O5)[C@]21O [GA, ginkgolide A] | 98.92 ± 5.81 | 100.59 ± 6.08 | 97.28 ± 2.19 | 102.76 ± 5.39 | 95.48 ± 10.28 | 102.54 ± 7.33 | 98.33 ± 3.46 | 98.42 ± 2.84 | 92.19 ± 8.81 | 98.31 ± 5.29 | 96.83 ± 8.30 | 95.44 ± 7.51 | – | – | – | – | – | – | AUC(0-inf) (in vivo): 545 ± 78.9 ng·h/mL; AUC(0-t) (in vivo): 491 ± 72.6 ng·h/mL; Cmax (in vivo): 76.3 ± 18.2 ng/mL; MRT (in vivo): 9.42 ± 1.77 h; Tmax (in vivo): 0.75 ± 0.29 h; half-life (in vivo): 7.52 ± 2.08 h

Reference: article PMC9080097, “Identification of absorbed constituents and evaluation of the pharmacokinetics of main compounds after oral administration of yindanxinnaotong by UPLC-Q-TOF-MS and UPLC-QqQ-MS” (RSC Advances, 2018)
